Source: PubChem BioAssay AID1919015 (Molecular Pharmacology Branch, DTP, NCI, 2023)

System: OVCAR-5 complex spheroids with HUVEC/MSC, viability, % test/control
Test: Anticancer human tumor OVCAR-5 cell line growth inhibition [AhR];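 further: spheroids exposed to compounds for 7 days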;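 on viability, T/C: 100% = DMSO vehicle control wells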
Conditions: for IC50: curve of first compound; for viability, T/C: stronger effect = lower value
In short: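 Spheroids combined tumor cells with HUVEC endothelial cells and human MSCs as stroma. AhR antagonists were paired with standard or investigational drugs, each dosed in half-log steps down from near clinical Cmax, or from 10 microM where Cmax was unknown.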

[1] = second compound 0.1 µM, first compound 0.0316 µM
[2] = second compound 0.1 µM, first compound 0.1 µM
[3] = second compound 0.1 µM, first compound 0.316 µM
[4] = second compound 0.1 µM, first compound 1 µM
[5] = second compound 0.316 µM, first compound 0.0316 µM
[6] = second compound 0.316 µM, first compound 0.1 µM
[7] = second compound 0.316 µM, first compound 0.316 µM
[8] = second compound 0.316 µM, first compound 1 µM
[9] = second compound 1 µM, first compound 0.0316 µM
[10] = second compound 1 µM, first compound 0.1 µM
[11] = second compound 1 µM, first compound 0.316 µM
[12] = second compound 1 µM, first compound 1 µM
[13] = second compound 3.16 µM, first compound 0.0316 µM
[14] = second compound 3.16 µM, first compound 0.1 µM
[15] = second compound 3.16 µM, first compound 0.316 µM
[16] = second compound 3.16 µM, first compound 1 µM
[17] = second compound 10 µM, first compound 0.0316 µM
[18] = second compound 10 µM, first compound 0.1 µM
[19] = second compound 10 µM, first compound 0.316 µM
[20] = second compound 10 µM, first compound 1 µM

Row | SMILES | IC50 (second compound 0.1 µM) | IC50 (second compound 0.316 µM) | IC50 (second compound 1 µM) | IC50 (second compound 3.16 µM) | IC50 (second compound 10 µM) | viability, T/C [1] | viability, T/C [2] | viability, T/C [3] | viability, T/C [4] | viability, T/C [5] | viability, T/C [6] | viability, T/C [7] | viability, T/C [8] | viability, T/C [9] | viability, T/C [10] | viability, T/C [11] | viability, T/C [12] | viability, T/C [13] | viability, T/C [14] | viability, T/C [15] | further results
1 | CC1COCCN1c1cc(-c2ccnn2C)c2ccnc(-c3ccn[nH]3)c2n1 (stereo not given) + Cc1cncc(-c2nc(NCCc3c[nH]c4ccccc34)c3ncn(C(C)C)c3n2)c1 | 273 nM | 282 nM | 265 nM | 183 nM | < 3.16 nM | 103% | 83% | 45.2% | 32.9% | 105% | 85% | 46.3% | 32.9% | 100% | 78.2% | 45.6% | 33.9% | 84.2% | 65.2% | 36.5% | viability, T/C (second compound 0.1 µM, first compound 0.00316 µM): 107%; viability, T/C (second compound 0.1 µM, first compound 0.01 µM): 103%; viability, T/C (second compound 0.316 µM, first compound 0.00316 µM): 106%; viability, T/C (second compound 0.316 µM, first compound 0.01 µM): 104%; viability, T/C (second compound 1 µM, first compound 0.00316 µM): 97.3%; viability, T/C (second compound 1 µM, first compound 0.01 µM): 99.2%; viability, T/C (second compound 3.16 µM, first compound 0.00316 µM): 80.8%; viability, T/C (second compound 3.16 µM, first compound 0.01 µM): 87.4%; viability, T/C [16]: 30.1%; viability, T/C (second compound 10 µM, first compound 0.00316 µM): 12.8%; viability, T/C (second compound 10 µM, first compound 0.01 µM): 12.8%; viability, T/C [17]: 13.7%; viability, T/C [18]: 10.6%; viability, T/C [19]: 6.62%; viability, T/C [20]: 7.97%
2 | CC1COCCN1c1cc(C2(S(C)(=N)=O)CC2)nc(-c2ccnc3[nH]ccc23)n1 (stereo not given) + Cc1cncc(-c2nc(NCCc3c[nH]c4ccccc34)c3ncn(C(C)C)c3n2)c1 | 9780 nM | > 10000 nM | 9580 nM | 5840 nM | < 31.6 nM | 99.4% | 102% | 106% | 101% | 99.6% | 98.4% | 99.3% | 103% | 92% | 95.6% | 94.9% | 96.4% | 74.5% | 79.2% | 80.5% | viability, T/C (second compound 0.1 µM, first compound 3.16 µM): 92%; viability, T/C (second compound 0.1 µM, first compound 10 µM): 49.1%; viability, T/C (second compound 0.316 µM, first compound 3.16 µM): 90%; viability, T/C (second compound 0.316 µM, first compound 10 µM): 51.6%; viability, T/C (second compound 1 µM, first compound 3.16 µM): 86%; viability, T/C (second compound 1 µM, first compound 10 µM): 48.5%; viability, T/C [16]: 82.4%; viability, T/C (second compound 3.16 µM, first compound 3.16 µM): 62.6%; viability, T/C (second compound 3.16 µM, first compound 10 µM): 38.9%; viability, T/C [17]: 19.6%; viability, T/C [18]: 22.8%; viability, T/C [19]: 22.9%; viability, T/C [20]: 18.6%; viability, T/C (second compound 10 µM, first compound 3.16 µM): 12.7%; viability, T/C (second compound 10 µM, first compound 10 µM): 6.44%
